Assay results: US6403554B2, “Polyunsaturated fatty acid derivatives and their use” (Ardenia Investments Ltd., priority 1998, dated 2002)
Entries after “also recorded” stand apart in the source; their conditions may differ.

Tests used:
[1] = system: antibody-forming cells (AFC) in the spleen; assay: Influence of compound on humoral immune response to sheep erythrocytes, C57B1/6 female mice (AFC in spleen, hemagglutinins); format: in vivo; conditions: for Amount of antibody-forming cells per 10^6 spleen cells / Amount of antibody-forming cells per spleen: M ± SEM; for Spleen index: with SRBC i.p.; for Amount of hemagglutinins: serum
Experimental: The increase was calculated as compared with the amount of cells in the animals immunised only with sheep erythrocytes.
(§1) 0.15 ml of compound 10 was administered intravenously to 6 mice females of CS7B1/6 line (weight 18-22 g) in doses of 45.5, 91 and 136.5 μg of compound 10 per capita for each testing group according to the dose. Simultaneously, a suspension of 5·10^7 sheep erythrocytes was injected intraperitoneally (0.2 ml per capita). Mice in the control group were injected intravenously with equal volume of saline. The effects of compound 10 on humoral immune response were analyzed both by counting the quantity of AFC in the spleen according to Cunningham (per 10^6 spleen cells and per spleen) and estimating the titers of hemagglutining antibodies in serum of the animals (Cunningham A. J., Nature, 1965, Vol.207, No 5001. P.1106-1107), while the titers of hemagglutinating antibodies were evaluated according to litterature (Evans J. et al., Cell, 1974; Vol 3., p.153-158, Feizi T., Menger E., Transfusion, 1970, Vol. 10, p.33-35,).
(§2) 0.15 ml of compound 11 was administered intravenously to 6 female mice of the C57B1/6 line (weight 18-22 g) in doses of 45.5, 91 and 136.5 μg of compound 11 per capita for each testing group according to the dose. Simultaneously, a suspension of 5·10^7 sheep erytrocytes was injected intraperitoneally (0.2 ml per capita). Mice in the control group were injected intravenously with an equal volume of saline. The effects of compound 11 on humoral immune response was analysed both by counting the quantity of AFC in the spleen according to Cunningham (per 10^6 spleen cells and per spleen) and estimating the titers of hemagglutining antibodies in serum of the animals.
as §2, with “12” for “11”, “erythrocytes” for “erytrocytes”, “analyzed” for “analysed”
as §2, with “compound 8” for “compound 11”, “sheep erythrocytes” for “sheep erytrocytes”, “Mice of” for “Mice in”, “response were analyzed” for “response was analysed”
0.15 ml of compound 3 was administered intravenously to 6 female mice of the C57B1/6 line (weight 18-22 g) in doses of 45.5, 91 and 136.5 μg of compound 3 per capita for each testing group according to the dose. Simultaneously, a suspension of 5·10^7 sheep erytrocytes was injected intraperitoneally (0.2 ml per capita). Mice of the control group were injected intravenously with equal volume of saline.

[2] = system: antibody-forming cells (AFC) in the spleen; assay: Influence of human AFP/compound complex and compound alone on humoral immune response, C57B1/6 male mice; format: in vivo; conditions: compound alone
Experimental: The influence of complexes of AFP with one of the title compounds 1-4, 1a-4a, 5-20 as well as their basic components on humoral immune response was estimated by counting the quantity of antibody-forming cells (AFC) in the mice spleen.
(§3) 0.15 ml of AFP/Compound 3 complex was administered intravenously to 6 mice males of C57B1/6 line (weight 18-22 g) in the dose of […] of AFP and 45.5 μg of compound 3 per capita. Simultaneously suspension of 5·10^7 sheep erythrocytes was injected intraperitoneally (0.2 ml per capita). In the group with compound 3 mice were injected intravenously by one in the dose of 45.5 μg. Animals of group with AFP received 9 μg of AFP. Mice of control group were injected intravenously with equal volume of saline. Complex AFP/Compound 3 effect on humoral immune response was analyzed by counting the quantity of AFC in the spleen according to Cunningham (per 10^6 spleen cells and per spleen).
(§4) 0.15 ml of AFP/Compound 2a complex (1:100) was administered intravenously to 6 mice males of C57B1/6 line (weight 18-22 g) in the dose of 9 μg of AFP and 45.5 μg of compound 2a per capita. Simultaneously, a suspension of 5·10^7 sheep erythrocytes was injected intraperitoneally (0.2 ml per capita). In the group with compound 2a mice were injected intravenously by one in the dose of 45.5 μg. Animals of group with AFP received 9 μg of AFP. Mice in the control group were injected intravenously with an equal volume of saline. The effect of the AFP/Compound 2a complex on humoral immune response was analyzed by counting the quantity of AFC in the spleen according to Cunningham (per 10^6 spleen cells and per spleen).
(§5) 0.15 ml of AFP/Compound 10 complex (1:200) was administered intravenously to 6 male mice of C57B1/6 line (weight 18-22 g) in the dose of 9 μg of AFP and 91 μg of compound 10 per capita. Simultaneously, a suspension of 5·10^7 sheep erythrocytes was injected intraperitoneally (0.2 ml per capita). In the group receiving compound 10 mice were injected intravenously by one in the dose of 91 μg. Animals in the group with AFP received 9 μg of AFP. Micein the control group were injected intravenously with an equal volume of saline. The effect of the AFP/Compound 10 complex on humoral immune response was analyzed by counting the quantity of AFC in the spleen according to Cunningham (per 10^6 spleen cells and per spleen).
as §5, with “AFP/Compound 14” for “AFP/Compound 10”, “compound 14” for “compound 10”, “group with” for “group receiving”, “Animals of” for “Animals in the”, “AFP. Mice in” for “AFP. Micein”

[3] = system: antibody-forming cells (AFC) in the spleen; assay: Humoral immune response: counting antibody-forming cells (AFC) in the spleen according to Cunningham, mice immunised with sheep erythrocytes; format: in vivo, C57B1/6 mice; conditions: compound alone
Experimental: as §1, §2
as §2, with “12” for “11”, “erythrocytes” for “erytrocytes”, “analyzed” for “analysed”
as §2, with “compound 8” for “compound 11”, “sheep erythrocytes” for “sheep erytrocytes”, “Mice of” for “Mice in”, “response were analyzed” for “response was analysed”
as §2, with “compound 3” for “compound 11”, “Mice of” for “Mice in”, “with” for “with an”, “response were” for “response was”
0.15 ml of compound 4 was administered intravenously to 6 female mice of the C57B1/6 line (weight 18-22 g) in a doses of 45.5, 91 and 136.5 μg of compound 4 per capita for each testing group according to the dose. Simultaneously, a suspension of 5·10^7 sheep erythrocytes was injected intraperitoneally (0.2 ml per capita). […]

[4] = system: hemagglutinating antibodies in serum; assay: Humoral immune response: titers of hemagglutinating antibodies in serum; format: in vivo, C57B1/6 mice; conditions: serum, female mice
[5] = system: antibody-forming cells (AFC) in the spleen; assay: Influence of AFP/compound complexes and their components on humoral immune response (AFC in spleen); format: in vivo, C57B1/6 mice; conditions: for Dose at which immunostimulating effect in vivo is displayed: compound in a complex with AFP
Experimental: as §3, §4, §5
as §5, with “AFP/Compound 14” for “AFP/Compound 10”, “compound 14” for “compound 10”, “group with” for “group receiving”, “Animals of” for “Animals in the”, “AFP. Mice in” for “AFP. Micein”
0.15 ml of AFP/Compound 7 complex (1:200) was administered intravenously to 6 male mice of C57B1/6 line (weight 18-22 g) in the dose of 9 μg of AFP and 91 μg of compound 7 per capita. Simultaneously, a suspension of 5·10^7 sheep erythrocytes was injected intraperitoneally (0.2 ml per capita). In the group with compound 7 mice were injected intravenously by one in the dose of 91 μg. Animals of group with AFP received 9 μg of AFP. Mice of control group were injected intravenously with equal volume of saline. AFP/Compound 7 complex effect on humoral immune response was analyzed by counting the quantity of AFC in the spleen according to Cunningham (per 10^6 spleen cells and per spleen).
0.15 ml of AFP/Compound 15 complex (1:200) was administered intravenously to 6 mice males of C57B1/6 line (weight 18-22 g) in the dose of 9 μg of AFP and 91 μg of compound 15 per capita. Simultaneously, a suspension of 5·10^7 sheep erythrocytes was injected intraperitoneally (0.2 ml per capita). In the group receiving compound 15, the mice were injected intravenously by one in the dose of 91 μg. Animals in the AFP-group received 9 μg of AFP. […]

[6] = 45.5 μg/mouse, i.v., 5th day, vs control

## CC1=C(/C=C/C(C)=C/C=C/C(C)=C/C(=O)N[C@H](C(=O)O)[C@@H](C)OP(=O)(O)O)C(C)(C)CCC1 (relative stereo) [Compound 3, N-(all-trans-Retinoyl)-O-phospho-L-threonine]
[1]; 45.5 μg/mouse
  Immunogenic activity: no immunogenic activity
[1]; 45.5 μg/mouse, i.v., 5th day
  Amount of antibody-forming cells per 10^6 spleen cells: 472.2±52.4 cells per 10^6 spleen cells
  Amount of antibody-forming cells per spleen: 44.6±3.9 × 10^3
[1]; [6]
  Effect on relative amount of AFC (per 10^6 spleen cells): +15.9 p > 00.05%
  Effect on total AFC amount (per spleen): +10.1 p > 0.05%
[1]; 45.5 μg/mouse, i.v., vs control
  Effect on hemagglutinin titers: +4.8 p > 0.05%
[1]; 45.5 μg/mouse, i.v.
  Spleen index: 6.1 ± 0.3 10^−3
[1]; 91 μg/mouse
  immunostimulating effect in vivo in micelle form: display immunostimulating effect in vivo
[1]; 91 μg/mouse, i.v., 5th day
  Amount of antibody-forming cells per 10^6 spleen cells: 827.7±34.6 cells per 10^6 spleen cells
  Amount of antibody-forming cells per spleen: 60.3±4.1 × 10^3
[1]; 91 μg/mouse, i.v.
  Amount of hemagglutinins: 8.0±0.3 Log2 T
  Spleen index: 6.2 ± 0.2 10^−3
[1]; 136.5 μg/mouse, i.v., 5th day
  Amount of antibody-forming cells per 10^6 spleen cells: 961.3±56.5 cells per 10^6 spleen cells
  Amount of antibody-forming cells per spleen: 107.0±8.5 × 10^3
[1]; 136.5 μg/mouse, i.v.
  Amount of hemagglutinins: 8.7±0.3 Log2 T
  Spleen index: 6.8 ± 0.3 10^−3
[1]; 91 and 136.5 μg/mouse
  immunostimulating action: high immunostimulating action
[2]; 45.5 μg/mouse
  Immunogenic activity: no immunogenic activity; also recorded: do not inhibit immunogenic activity
[2]; 45.5 μg/mouse i.v., 5th day
  relative amount of AFC: 472.2±52.4 cells per 10^6 spleen cells
  total AFC amount: 44.6±3.9 × 10^3

## CC1=C(/C=C/C(C)=C/C=C/C(C)=C/C(=O)N[C@H](C(=O)O)[C@@H](C)OP(=O)(O)O)C(C)(C)CCC1 (relative stereo) [Compound 3, N-(all-trans-retinoyl)-o-phospho-L-threonine]
[3]
  Dose at which immunostimulating effect in vivo is displayed (micelle form): 91 μg/mouse
[4]; 45.5 μg/mouse i.v.
  Amount of hemagglutinins: 6.6 ± 0.2 Log2 T
[4]; 91 μg/mouse i.v.
  Amount of hemagglutinins: 8.0 ± 0.3 Log2 T
[4]; 136.5 μg/mouse i.v.
  Amount of hemagglutinins: 8.7 ± 0.3 Log2 T
[5]
  Dose at which immunostimulating effect in vivo is displayed: 45.5 μg/mouse

## CC1=C(/C=C/C(C)=C/C=C/C(C)=C\C(=O)N[C@@H](COP(=O)(O)O)C(=O)O)C(C)(C)CCC1 (stereo in doubt) [Compound 2a, N-(13-cis-retinoyl)-o-phospho-L-serine]
[3]
  Dose at which immunostimulating effect in vivo is displayed (micelle form): 91 μg/mouse
[4]; 45.5 μg/mouse i.v.
  Amount of hemagglutinins: 7.2 ± 0.3 Log2 T
[4]; 91 μg/mouse i.v.
  Amount of hemagglutinins: 7.5 ± 0.2 Log2 T
[4]; 136.5 μg/mouse i.v.
  Amount of hemagglutinins: 8.2 ± 0.4 Log2 T
[5]; compound alone, 45.5 μg/mouse
  Immunogenic activity: no immunogenic activity; also recorded: do not inhibit immunogenic activity
[5]
  Dose at which immunostimulating effect in vivo is displayed: 45.5 μg/mouse
